# Results: ChEMBL document CHEMBL1149083, “CoMFA and CoMSIA 3D-QSAR studies on S(6)-(4-nitrobenzyl)mercaptopurine riboside (NBMPR) analogs as inhibitors of human equilibrative nucleoside transporter 1 (hENT1)” (Bioorg Med Chem Lett, 2009)
# Molecular target: T1, Equilibrative nucleoside transporter 1 (Homo sapiens, UniProt Q99808)
# T1 sequence (Q99808 whole entry): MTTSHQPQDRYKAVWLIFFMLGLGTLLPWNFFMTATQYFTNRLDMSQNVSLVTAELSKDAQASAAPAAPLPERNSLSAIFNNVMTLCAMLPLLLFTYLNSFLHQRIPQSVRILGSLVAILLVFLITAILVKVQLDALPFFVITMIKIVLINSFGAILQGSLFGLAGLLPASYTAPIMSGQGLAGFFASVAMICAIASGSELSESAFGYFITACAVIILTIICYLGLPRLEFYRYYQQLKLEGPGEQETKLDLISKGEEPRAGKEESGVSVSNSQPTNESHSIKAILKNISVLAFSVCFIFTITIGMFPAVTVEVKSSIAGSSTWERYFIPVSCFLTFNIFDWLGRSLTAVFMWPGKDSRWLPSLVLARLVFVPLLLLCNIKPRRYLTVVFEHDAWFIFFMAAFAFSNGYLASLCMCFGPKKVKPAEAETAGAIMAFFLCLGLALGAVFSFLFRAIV
# Experiment: Inhibition of human ENT1
row,Ki,SMILES
1,115 nM,O=[N+]([O-])c1ccccc1CSc1ncnc2c1ncn2[C@@H]1O[C@H](CO)[C@@H](O)[C@H]1O
2,15.1 nM,Cc1ccc(CSc2ncnc3c2ncn3[C@@H]2O[C@H](CO)[C@@H](O)[C@H]2O)cc1
3,19.5 nM,OC[C@H]1O[C@@H](n2cnc3c(SCc4ccccc4I)ncnc32)[C@H](O)[C@@H]1O
4,24 nM,OC[C@H]1O[C@@H](n2cnc3c(SCc4ccccc4F)ncnc32)[C@H](O)[C@@H]1O
5,20 nM,OC[C@H]1O[C@@H](n2cnc3c(SCc4ccccc4)ncnc32)[C@H](O)[C@@H]1O [6-BENZYLTHIOINOSINE]
6,12.9 nM,OC[C@H]1O[C@@H](n2cnc3c(SCc4cccc(F)c4)ncnc32)[C@H](O)[C@@H]1O
7,1.78 nM,O=[N+]([O-])c1cccc(CSc2ncnc3c2ncn3[C@@H]2O[C@H](CO)[C@@H](O)[C@H]2O)c1
8,10000 nM,CC(C)(C)c1ccc(CSc2ncnc3c2ncn3[C@@H]2O[C@H](CO)[C@@H](O)[C@H]2O)cc1
9,4.37 nM,OC[C@H]1O[C@@H](n2cnc3c(SCc4ccc(Cl)cc4Cl)ncnc32)[C@H](O)[C@@H]1O
10,67.6 nM,Cc1ccccc1CSc1ncnc2c1ncn2[C@@H]1O[C@H](CO)[C@@H](O)[C@H]1O
11,117 nM,OC[C@H]1O[C@@H](n2cnc3c(SCc4ccccc4Cl)ncnc32)[C@H](O)[C@@H]1O
12,46.8 nM,COC(=O)c1ccc(CSc2ncnc3c2ncn3[C@@H]2O[C@H](CO)[C@@H](O)[C@H]2O)cc1
13,36.3 nM,N#Cc1cccc(CSc2ncnc3c2ncn3[C@@H]2O[C@H](CO)[C@@H](O)[C@H]2O)c1
14,14.8 nM,OC[C@H]1O[C@@H](n2cnc3c(SCc4ccc(Cl)cc4)ncnc32)[C@H](O)[C@@H]1O
15,7.08 nM,OC[C@H]1O[C@@H](n2cnc3c(SCc4ccc(OC(F)(F)F)cc4)ncnc32)[C@H](O)[C@@H]1O
16,16.2 nM,Cc1cccc(CSc2ncnc3c2ncn3[C@@H]2O[C@H](CO)[C@@H](O)[C@H]2O)c1
17,34.7 nM,COc1ccc(CSc2ncnc3c2ncn3[C@@H]2O[C@H](CO)[C@@H](O)[C@H]2O)cc1
18,87.1 nM,OC[C@H]1O[C@@H](n2cnc3c(SCc4c(F)cccc4Cl)ncnc32)[C@H](O)[C@@H]1O
19,12.6 nM,OC[C@H]1O[C@@H](n2cnc3c(SCc4ccc(Cl)c(Cl)c4)ncnc32)[C@H](O)[C@@H]1O
20,19.1 nM,OC[C@H]1O[C@@H](n2cnc3c(SCc4cccc(C(F)(F)F)c4)ncnc32)[C@H](O)[C@@H]1O
21,1910 nM,Cc1cc(C)c(CSc2ncnc3c2ncn3[C@@H]2O[C@H](CO)[C@@H](O)[C@H]2O)c(C)c1
22,151 nM,OC[C@H]1O[C@@H](n2cnc3c(SCc4ccccc4Br)ncnc32)[C@H](O)[C@@H]1O
23,38.9 nM,N#Cc1ccccc1CSc1ncnc2c1ncn2[C@@H]1O[C@H](CO)[C@@H](O)[C@H]1O
24,20.9 nM,OC[C@H]1O[C@@H](n2cnc3c(SCc4cccc(Br)c4)ncnc32)[C@H](O)[C@@H]1O
25,4.57 nM,N#Cc1ccc(CSc2ncnc3c2ncn3[C@@H]2O[C@H](CO)[C@@H](O)[C@H]2O)cc1
26,3.8 nM,OC[C@H]1O[C@@H](n2cnc3c(SCc4ccc(I)cc4)ncnc32)[C@H](O)[C@@H]1O
27,18.2 nM,OC[C@H]1O[C@@H](n2cnc3c(SCc4cccc(Cl)c4)ncnc32)[C@H](O)[C@@H]1O
28,11.5 nM,OC[C@H]1O[C@@H](n2cnc3c(SCc4ccc(Br)cc4)ncnc32)[C@H](O)[C@@H]1O
